Measured values reported in patent publication US7648983B2, “BACE inhibitors” (Eli Lilly and Company, priority 2008, dated 2010).
Where a name gives a salt, the structure may show the parent alone. Read-outs that look alike come from different tables or passages of the source.

Tests used:
[1] = target: T1, beta-secretase (BACE) in primary cortical neurons from PDAPP transgenic embryonic mice (Mus musculus, UniProt P56818); assay: PDAPP primary neuronal assay (Abeta ELISA); assay type: cell-based
T1 construct: endogenous in cells; host or cells: primary cortical neurons from Embryonic Day 16 PDAPP transgenic mouse embryos
T1 sequence (P56818 46-501): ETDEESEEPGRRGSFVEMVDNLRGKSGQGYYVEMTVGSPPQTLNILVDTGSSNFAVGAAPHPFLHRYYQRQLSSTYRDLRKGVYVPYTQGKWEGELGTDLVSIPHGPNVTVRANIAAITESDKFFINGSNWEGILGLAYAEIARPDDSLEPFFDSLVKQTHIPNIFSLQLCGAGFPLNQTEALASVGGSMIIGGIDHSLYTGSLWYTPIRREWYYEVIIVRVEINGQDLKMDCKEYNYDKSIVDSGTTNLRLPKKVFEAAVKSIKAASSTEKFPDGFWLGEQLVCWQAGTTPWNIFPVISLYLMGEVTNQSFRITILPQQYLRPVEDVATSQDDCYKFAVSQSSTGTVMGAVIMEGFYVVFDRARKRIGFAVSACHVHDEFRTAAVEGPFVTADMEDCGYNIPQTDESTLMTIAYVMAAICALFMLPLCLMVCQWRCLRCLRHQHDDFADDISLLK
Protocol: (§1) For in vitro enzymatic and cellular assays, test compounds are prepared in DMSO to make up a 10 mM stock solution. The stock solution is serially diluted in DMSO to obtain a ten-point dilution curve with final compound concentrations ranging from […] to 1 pM in a 96-well round-bottom plate before conducting the in vitro enzymatic and whole cell assays.
A confirmatory whole cell assay is also run in primary neuronal cultures generated from PDAPP transgenic embryonic mice. Primary cortical neurons are prepared from Embryonic Day 16 PDAPP embryos and cultured in 96 well plates (15×10^4 cells/well in DMEM/F12 (1:1) plus 10% FBS). After 4-6 days in vitro, culture media is replaced with serum free DMEM/F12 (1:1) containing B27 supplement and neurons are incubated at 37° C. for 24 h in the presence/absence of inhibitors (diluted in DMSO) at the desired concentration. At the end of the incubation, conditioned media are analyzed for evidence of beta-secretase activity, for example, by analysis of Abeta peptides. Total Abeta peptides (Abeta 1-x) are measured by a sandwich ELISA, using monoclonal 266 as a capture antibody and biotinylated 3D6 as reporting antibody. Alternatively, Abeta 1-40 and Abeta 1-42 peptides are measured by a sandwich ELISA, using monoclonal 2G3 as a capture antibody for Abeta 1-40, and monoclonal 21F12 as a capture antibody for Abeta 1-42. Both Abeta 1-40 and Abeta 1-42 ELISAs use biotinylated 3D6 as the reporting antibody. The concentration of Abeta released in the conditioned media following the compound treatment corresponds to the activity of BACE under such conditions. The 10-point inhibition curve is plotted and fitted with the four-parameter logistic equation to obtain the EC50 and IC50 values for the Abeta-lowering effect. […]

human BACE(1-460):Fc = target: T2, human BACE(1-460):Fc (Homo sapiens, UniProt P56817); assay: BACE FRET assay; assay type: biochemical
T2 construct: made in house; host or cells: HEK293 cells (transient, pJB02 vector), purified from conditioned media by Protein A
T2 sequence (P56817 22-460): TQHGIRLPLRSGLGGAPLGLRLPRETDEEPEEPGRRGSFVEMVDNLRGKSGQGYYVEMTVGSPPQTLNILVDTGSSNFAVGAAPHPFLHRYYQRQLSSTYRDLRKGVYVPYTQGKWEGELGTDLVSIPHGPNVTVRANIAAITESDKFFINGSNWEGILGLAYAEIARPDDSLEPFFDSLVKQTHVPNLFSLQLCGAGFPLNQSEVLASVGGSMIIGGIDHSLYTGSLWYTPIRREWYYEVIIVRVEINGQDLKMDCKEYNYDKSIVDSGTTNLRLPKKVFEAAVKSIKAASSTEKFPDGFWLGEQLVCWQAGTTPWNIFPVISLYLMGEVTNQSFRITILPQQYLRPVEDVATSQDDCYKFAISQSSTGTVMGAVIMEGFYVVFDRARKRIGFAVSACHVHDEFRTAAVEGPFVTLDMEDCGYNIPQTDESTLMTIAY
Protocol: as §1
Serial dilutions of test compounds are prepared as described above. Compounds are further diluted 20× in KH2PO4 buffer. Ten μL of each dilution is added to each well on row A to H of a corresponding low protein binding black plate containing the reaction mixture (25 μL of 50 mM KH2PO4, pH 4.6, 1 mM TRITON® X-100, 1 mg/mL Bovine Serum Albumin, and 15 μM of FRET substrate) (See Yang, et. al., J. Neurochemistry, 91(6) 1249-59 (2004)). The content is mixed well on a plate shaker for 10 minutes. Fifteen μL of two hundred pM human BACE(1-460):Fc (See Vasser, et al., Science, 286, 735-741 (1999)) in the KH2PO4 buffer is added to the plate containing substrate and test compounds to initiate the reaction. The RFU of the mixture at time 0 is recorded at excitation wavelength 355 nm and emission wavelength 460 nm, after brief mixing on a plate shaker. The reaction plate is covered with aluminum foil and kept in a dark humidified oven at room temperature for 16 to 24 h. The RFU at the end of incubation is recorded with the same excitation and emission setting. The difference of the RFU at time 0 and the end of incubation is representative of the activity of BACE under the compound treatment. RFU differences are plotted versus inhibitor concentration and a curve is fitted with a four-parameter logistic equation to obtain the EC50 and IC50 values. (See Sinha, et al., Nature, 402, 537-540 (2000)).
Human (accession number: AF190725) is cloned from total brain cDNA by […]. The nucleotide sequences corresponding to amino acid sequences #1 to 460 are inserted into the cDNA encoding human IgG1 (Fc) polypeptide (Vassar et al. 1999). This fusion protein of BACE(1-460) and human Fc, named huBACE:Fc, is constructed into the pJB02 vector. Human BACE(1-460):Fc (huBACE:Fc) is transiently expressed in HEK293 cells. 250 μg cDNA of each construct is mixed with Fugene 6 and added to 1 liter HEK293 cells. Four days after the transfection, conditioned media are harvested for purification.
huBACE:Fc is purified by Protein A chromatography. The enzyme is stored at −80° C. in small aliquots.

[2] = target: T3, beta-secretase (BACE) in HEK293/APP751sw cells (Homo sapiens, UniProt P56817); assay: HEK293Swe whole cell assay (Abeta ELISA); assay type: cell-based
T3 construct: endogenous in cells; host or cells: HEK293p (ATCC CRL-1573) stably expressing human APP751 Swedish
T3 sequence (P56817 46-501): as the sequence (P56818 46-501) above, with S6P, I162V, I165L, T180S, A182V, V340I, A393L, H443Q counted along it
Protocol: as §1
The routine whole cell assay for the measurement of inhibition of beta-secretase activity utilizes the human embryonic kidney cell line HEK293p (ATCC Accession No. CRL-1573) stably expressing a human APP751 cDNA containing the naturally occurring double mutation Lys651Met652 to […], commonly called the Swedish mutation (noted HEK293/APP751sw) and shown to overproduce Abeta (Citron, et al., Nature, 360, 672-674 (1992)). In vitro Aβ reduction assays have been described in the literature (See Dovey, et al., Journal of Neurochemistry, 76, 173-181 (2001); Seubert, et al., Nature, 361, 260 (1993); and Johnson-Wood, et al., Proc. Natl. Acad. Sci. USA, 94, 1550-1555 (1997)).
Cells (HEK293/APP751sw at 3.5×10^4 cells/well, containing 200 μL culture media, DMEM containing 10% FBS) are incubated at 37° C. for 4 to 24 h in the presence/absence of inhibitors (diluted in DMSO) at the desired concentration. At the end of the incubation, conditioned media are analyzed for evidence of beta-secretase activity, for example, by analysis of Abeta peptides. Total Abeta peptides (Abeta 1-x) are measured by a sandwich ELISA, using monoclonal 266 as a capture antibody and biotinylated 3D6 as reporting antibody. Alternatively, Abeta 1-40 and Abeta 1-42 peptides are measured by a sandwich ELISA, using monoclonal 2G3 as a capture antibody for Abeta 1-40, and monoclonal 21F12 as a capture antibody for Abeta 1-42. Both Abeta 1-40 and Abeta 1-42 ELISAs use biotinylated 3D6 as the reporting antibody. The concentration of Abeta released in the conditioned media following the compound treatment corresponds to the activity of BACE under such conditions. The 10-point inhibition curve is plotted and fitted with the four-parameter logistic equation to obtain the EC50 and IC50 values for the Abeta-lowering effect.

beta-secretase = target: T4, beta-secretase (Mus musculus, UniProt P56818); assay: In vivo inhibition of beta-secretase in PDAPP mice; conditions: 3 hours
T4 construct: from tissue; host or cells: living PDAPP mice; brain cortex, plasma and CSF analysed
T4 sequence (P56818 46-501): as the sequence (P56818 46-501) above
Source text: Several animal models, including mouse, guinea pig, dog, and monkey, may be used to screen for inhibition of beta-secretase activity in vivo following compound treatment. Animals used in this invention can be wild type, transgenic, or gene knockout animals. For example, the PDAPP mouse model, prepared as described in Games et al., Nature 373, 523-527 (1995), and other non-transgenic or gene knockout animals are useful to analyze in vivo inhibition of Abeta and sAPPbeta production in the presence of inhibitory compounds. Generally, 2 to 12 month old PDAPP mice, gene knockout mice or non-transgenic animals are administered compound formulated in vehicles, such as corn oil, cyclodextran, phosphate buffers, PHARMASOLVE®, or other suitable vehicles. One to twenty-four hours following the administration of compound, animals are sacrificed, and brains as well as cerebrospinal fluid and plasma are removed for analysis of Abetas, C99 and sAPP fragments. (See Dovey, et al., Journal of Neurochemistry, 76, 173-181 (2001); and Johnson-Wood, et al., Proc. Natl. Acad. Sci. USA, 94, 1550-1555 (1997)).
For standard efficacy studies, animals are dosed with various concentrations of compound and compared to a vehicle-treated control group dosed at the same time. For some time course studies, brain tissue, plasma or cerebrospinal fluid is obtained from selected animals, beginning at time 0 to establish a baseline. Compound is administered to other groups and sacrificed at various times after dosing. Brain tissue, plasma or cerebrospinal fluid is obtained from selected animals and analyzed for the presence of APP cleavage products, including Abeta peptides, sAPPbeta and other APP fragments, for example, by specific sandwich ELISA assays. At the end of the test period, animals are sacrificed and brain tissues, plasma or cerebrospinal fluid are analyzed for the presence of Abeta peptides, C99 and sAPPbeta. Brain tissues of APP transgenic animals are also analyzed for the amount of beta-amyloid plaques following compound treatment.
For example, 3 hours after administration of 100 mg/kg sub-cutaneous dose of the compound of example 19 to young male PDAPP mice, Abeta 1-x peptide, C99 and sAPPb levels are reduced approximately 30%, 50% and 20% in brain cortex, respectively, compared to vehicle-treated mice.

[3] = Table 29, comparator of WO 2007/049532 and enantiomers, read-out: PDAPP Neuron A-beta (1-40) ELISA IC50
[4] = Table 29, comparator of WO 2007/049532 and enantiomers, read-out: PDAPP Neuron A-beta (1-42) ELISA IC50
[5] = Table 29, comparator of WO 2007/049532 and enantiomers
[6] = Table 29, comparator of WO 2007/049532 and enantiomers, read-out: HEK 293 Swe A-beta (1-40) ELISA IC50
[7] = Table 29, comparator of WO 2007/049532 and enantiomers, read-out: HEK 293 Swe A-beta (1-42) ELISA IC50
[8] = Table 28, Abeta 1-40 in conditioned media, 24 h, read-out: PDAPP Neuron A-beta (1-40) ELISA IC50
[9] = Table 28, Abeta 1-42 in conditioned media, 24 h, read-out: PDAPP Neuron A-beta (1-42) ELISA IC50
[10] = Table 26, purified recombinant huBACE:Fc, FRET substrate, pH 4.6
[11] = Table 27, Abeta 1-40 in conditioned media, read-out: HEK 293 Swe A-beta (1-40) ELISA IC50
[12] = Table 27, Abeta 1-42 in conditioned media, read-out: HEK 293 Swe A-beta (1-42) ELISA IC50
[13] = 30 mg/kg sub-cutaneous, young male PDAPP mice, brain, vs vehicle-treated mice
[14] = 100 mg/kg sub-cutaneous, young male PDAPP mice, vs vehicle-treated mice

SMILES	IC50 (human BACE(1-460):Fc; [5]) [nM]	IC50 [2, 6] [nM]	IC50 [2, 7] [nM]	IC50 [1, 8] [nM]	IC50 [1, 9] [nM]	IC50 (human BACE(1-460):Fc; [10]) [nM]	IC50 [2, 11] [nM]	IC50 [2, 12] [nM]	also measured
C[C@@]1(c2ccc(-c3ccccc3)cc2)CCSC(N)=N1 [reference compound]	28000	13200	16400	–	–	–	–	–	IC50 [1, 3]: 7820 nM; IC50 [1, 4]: 10400 nM
C[C@]1(c2ccc(-c3ccccc3)cc2)CCSC(N)=N1 [reference compound]	> 100000	16500	23700	–	–	–	–	–	IC50 [1, 3]: 28100 nM; IC50 [1, 4]: 46800 nM
CC1(C)C[C@@](C)(c2ccc(F)c(-c3cncnc3)c2)N=C(N)S1 [Example 21, (S)-4-(4-fluoro-3-(pyrimidin-5-yl)phenyl)-4,6,6-trimethyl-5,6-dihydro-4H-1,3-thiazin-2-amine]	–	–	–	355	429	867	863	803	–
CC1(c2ccc(-c3ccccc3)cc2)CCSC(N)=N1 (stereo not drawn) [reference compound]	116000	21400	35300	–	–	–	–	–	–
C[C@@]1(c2cc(-c3cncnc3)c(F)cc2F)CCSC(N)=N1 [Example 5, (S)-4-(2,4-Difluoro-5-pyrimidin-5-yl-phenyl)-4-methyl-5,6-dihydro-4H-[1,3]thiazin-2-ylamine]	–	–	–	–	–	–	–	–	CSF Abeta 1-x level reduction (beta-secretase; 10 mg/kg oral, CSF): ~60%; plasma Abeta 1-x level reduction (beta-secretase; 10 mg/kg oral, plasma): approximately 50%; Abeta 1-x peptide level reduction (beta-secretase; [13]): approximately 50%; C99 level reduction (beta-secretase; [13]): ~45%; sAPPb level reduction (beta-secretase; [13]): approximately 30%
COc1cncc(-c2cccc([C@]3(C)CCSC(N)=N3)c2)c1.Cl.Cl [Example 19, (S)-4-[3-(5-Methoxy-pyridin-3-yl)-phenyl]-4-methyl-5,6-dihydro-4H-[1,3]thiazin-2-ylamine dihydrochloride]	–	–	–	288	214	420	335	480	Abeta 1-x peptide level reduction in brain cortex (beta-secretase; [14]): approximately 30%; C99 level reduction in brain cortex (beta-secretase; [14]): approximately 50%; sAPPb level reduction in brain cortex (beta-secretase; [14]): ~20%
C[C@@]1(c2ccc(F)c(-c3cnccn3)c2)CCSC(N)=N1 [Example 12, (S)-4-(4-fluoro-3-(pyrazin-2-yl)phenyl)-4-methyl-5,6-dihydro-4H-1,3-thiazin-2-amine dihydrochloride]	–	–	–	658	648	833	1300	948	–
